Test results published in US6861448B2, “NAD synthetase inhibitors and uses thereof” (priority 1998, dated 2005).
In brackets after ≈: the same amount, converted by molar mass. Several values for one entry are separate records, joined by “and”; a condition that tells them apart may be missing. Equal entries are not always repeated. Structures can show the parent of a compound that is named as a salt. Where two headings read alike, the source gives them in different places.

Key:
E. coli = assay: MIC test (NCCLS broth dilution), growth inhibition; format: cell-based; conditions: for MIC: Escherichia coli
Protocol: (§1) Antimicrobial Testing (P. aeruginosa, E. coli, B. subtilis, S. aureus, S. aureus (MCR), A. niger and M. flavescens.)
(§2) The test compounds were solubilized, diluted, and pipetted in duplicate into 10 mL sterile culture tubes and dried under vacuum.
(§3) Challenge organisms, specified were grown overnight at 37° C. in the appropriate medium (i.e., Mueller-Hinton Broth). These pure broth cultures were diluted 1:1,000 and 2.0 mL were added to the test compound tubes.
(§4) Appropriate media controls, challenge organism viability controls, and antibiotic control dilutions (i.e., ampicillin and nystatin), were prepared in the same manner as the test compounds and run against the challenge organisms.

P aeruginosa = assay: MIC test (NCCLS broth dilution), growth inhibition; format: cell-based; conditions: for MIC: Pseudomonas aeruginosa, read-out: Potency to inhibit growth, P aeruginosa (MIC)
Protocol: as §1, §2, §3, §4

C. albicans = assay: MIC test, fungal growth inhibition; format: cell-based; conditions: in vitro; for MIC: Candida albicans, read-out: Potency to inhibit growth, C. albicans (MIC)
Protocol: (§5) The MIC test procedures conformed to the present protocol from the National Committee for Clinical Laboratory Standards (NCCLS), and were designed to provide basic antimicrobial data on compounds based on the MIC of the active component.
as §2, §3, §4

A. niger = assay: MIC test, fungal growth inhibition; format: cell-based; conditions: for MIC: Aspergillus niger, read-out: Potency to inhibit growth, A. niger (MIC)
Protocol: as §1, §5, §2, §3, §4

B. subtilis = assay: microbe, parasite or virus in culture; format: cell-based; conditions: multiple values = two or more tests; for MIC: Bacillus subtilis, read-out: Minimal Inhibitory Concentration (MIC), B. subtilis
S. aureus = assay: microbe, parasite or virus in culture; format: cell-based; conditions: multiple values = two or more tests; for MIC: Staphylococcus aureus, read-out: Minimal Inhibitory Concentration (MIC), S. aureus
S. aureus (MCR) = assay: microbe, parasite or virus in culture; format: cell-based; conditions: for MIC: Staphylococcus aureus, read-out: Minimal Inhibitory Concentration (MIC), S. aureus (MCR), multiple values = two or more tests; for Minimal Inhibitory Concentration (MIC), S. aureus (MCR): multiple values = two or more tests
[1] = system: Bacillus anthracis Sterne 34F2; assay: microbe, parasite or virus in culture; format: cell-based; conditions: Bacillus anthracis
M. flavescens = assay: microbe, parasite or virus in culture; format: cell-based; conditions: for MIC: Mycolicibacterium flavescens, read-out: Minimal Inhibitory Concentration (MIC), M. flavescens
Murine 3T3 cells = assay: Cytotoxicity in murine 3T3 cells (LDH release); format: cell-based; conditions: at 100 μM, 20 hrs
Protocol: (§6) Prior to conducting the assay, cell number, serum concentration, and medium conditions were optimized. Then using the assay conditions as described below, cells were seeded on day 1 and allowed to adhere for at least 1 hour. […] The initial solubilization of the test articles was in 50:50 methanol:water (v/v). […] On day 1, compounds 1439 and 1364 required sonication before solubility was reached). The cells plus compound were incubated overnight at 37° C., under a 5% CO2/[…] atmosphere. On day 2, the cells in the positive control wells were lysed with 0.9% Triton X-100 for 45 minutes to establish maximum levels of LDH release. The plates were centrifuged at 250× g for 5 minutes, the supernatants transferred to a new assay plate, and the LDH was measured. The assay plates were read at OD 490 nm.

[2] = system: rabbit primary renal cells (RPRC); assay: Cytotoxicity in rabbit primary renal cells (annexin V / PI flow cytometry); format: cell-based; conditions: 24 hr, mean ± SEM; for % CELLULAR NECROSIS (RPRC): at 300 μM; for % APOPTOSIS (RPRC): at peak effect (30 μM)
Protocol: Cytotoxicity in Rabbit Primary Renal Cells
Isolation of Proximal Tubules and Culture Conditions
Rabbit renal proximal tubules were isolated using the iron oxide perfusion method and grown in 35-mm tissue culture dishes under improved conditions. The cell culture medium was a 1:1 mixture of DMEM/Ham's F-12 (without D-glucose, phenol red, or sodium pyruvate) supplemented with 15 mM HEPES buffer, 2.5 mM L-gluatmine, 1 μM pyridoxine HCL, 15 mM sodium bicarbonate, and 6 mM lactate. Hydrocortisone (50 nM), selenium (5 ng/mL), human transferrin (5 μg/mL), bovine insulin (10 nM) and L-ascorbic acid-2-phosphate (50 μM) were added to fresh culture medium immediately prior to daily media change.
All numbered compounds were diluted in methanol and the final concentration of methanol in RPRC was less then 0.1% (v/v).
Measurement of RPRC Death
Cell death was monitored in RPRC by assessment of both annexin V and PI staining using flow cytometry. Briefly, RPRC were exposed to the indicated concentrations of compounds for 24 hr. Media was removed and RPRC washed twice with phosphate-buffered saline (PBS) and incubated in a binding buffer (10 mM HEPES, 140 mM NaCL, 5 mM KCL, 1 mM MgCl2, 1.8 mM CaCl2, pH=7.4) containing annexin V-FITC (1 μmol) and PI (25 μg/mL). After a 10 min incubation, RPRC were washed three times in the binding buffer and were released from the monolayers by gentle scrapping with a rubber policeman. Annexin V and PI staining were measured using a BectonDickson FacsCalibur flow cytometer (San Jose, Calif.). An equal number of cells (10,000) were counted for sample and apoptotic cells were defined as those that stained positive for annexin V-FITC only. RPRC undergoing necrotic cell death stained for PI only.
RPRC isolated from one rabbit represented one experiment (n=1). Data were analyzed and are reported as means±standard error of the mean of at least 3 separate experiments.

NAD synthetase = NAD synthetase (Bacillus subtilis, UniProt P08164); assay: NAD synthetase coupled enzyme assay; format: biochemical
NAD synthetase, sequence (P08164 whole entry): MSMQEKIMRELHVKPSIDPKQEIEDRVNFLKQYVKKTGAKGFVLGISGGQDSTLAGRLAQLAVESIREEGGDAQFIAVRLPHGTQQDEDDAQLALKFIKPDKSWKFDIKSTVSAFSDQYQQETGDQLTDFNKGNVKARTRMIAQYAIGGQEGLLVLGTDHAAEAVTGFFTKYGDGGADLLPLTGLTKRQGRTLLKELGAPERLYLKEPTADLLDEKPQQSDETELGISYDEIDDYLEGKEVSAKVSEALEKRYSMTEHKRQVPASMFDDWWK
From the text: This Example illustrates the NAD synthetase enzyme inhibiting activity of some compounds of the present invention. [drawing 48] The coupled assay—production of NAD was monitored through conversion to NADH by alcohol dehydrogenase. [NADH] was monitored by 2 parallel methods: the change in absorbance at 340 nm, and fluorescence at 460 nm (excitation 320 nm). […] Controls were included for determining inhibitor background, precipitation, and ADH inhibition.

[3] = Solubilization of test articles in methanol:water; format: physicochemical; conditions: 50:50 methanol:water (v/v)
Protocol: as §6

[4] = in vitro, read-out: Potency to inhibit growth, E. coli (MIC)
[5] = STERNE34F2, read-out: approximate MIC, B. anthracis (first value)
[6] = STERNE34F2, read-out: approximate MIC, B. anthracis (second value)
[7] = NAD synthetase 2.0 μg/mL, 0.1 mM NaAD, 0.2 mM ATP, pH 8.5

Compound	MIC (E. coli; [4])	MIC (P aeruginosa; in vitro)	MIC (S. aureus)	MIC (S. aureus (MCR))	MIC (M. flavescens)	IC50 (NAD synthetase)	Minimal Inhibitory Concentration (MIC), S. aureus (MCR) (S. aureus (MCR))	Potency to inhibit growth, C. albicans (MIC) (C. albicans)	Potency to inhibit growth, A. niger (MIC) (A. niger; in vitro)	Potency to inhibit growth, E. coli (MIC) (E. coli; in vitro)	Potency to inhibit growth, P aeruginosa (MIC) (P aeruginosa; in vitro)	Minimal Inhibitory Concentration (MIC), B. subtilis (B. subtilis)	Minimal Inhibitory Concentration (MIC), S. aureus (S. aureus)	IC50 (NAD synthetase; [7])	also measured
C[N+](C)(C)[C@H](COCCCCCCCCOc1ccc(OCc2ccccc2)cc1)Cc1ccccc1 [Compound 1439]	< 12.5 µg/mL	> 50 µg/mL	< 0.78 µg/mL	< 1.56 µg/mL	< 12.5 µg/mL	22.7 µM									MIC (C. albicans): < 3.13 µg/mL; MIC (A. niger; in vitro): < 25 µg/mL; MIC (B. subtilis): < 0.39 µg/mL; MIC [1, 5]: 4 µg/mL; MIC [1, 6]: 4 µg/mL; % CELLULAR NECROSIS (FIBROBLASTS) (Murine 3T3 cells): 73%; % CELLULAR NECROSIS (RPRC) [2]: 62 ± 2%; % APOPTOSIS (RPRC) [2]: 10 ± 1%; solubility of test article in methanol:water [3]: never went into solution at 50% organic
C[N+](C)(C)C(Cc1ccccc1)C(=O)NCCCCCCCCOc1ccc(OCc2ccccc2)cc1 (centres unmarked) [Compound 1364]				< 0.78 µg/mL	> 50 µg/mL	48.4 µM	<1.56 µg/mL								MIC (E. coli; read-out: Potency to inhibit growth, E. coli (MIC), in vitro): < 50 µg/mL; MIC (P aeruginosa): > 50 µg/mL; MIC (A. niger): > 50 µg/mL; % CELLULAR NECROSIS (FIBROBLASTS) (Murine 3T3 cells): 62%; % CELLULAR NECROSIS (RPRC) [2]: 63 ± 2%; % APOPTOSIS (RPRC) [2]: 15 ± 3%; solubility of test article in methanol:water [3]: went into solution on day 1, but precipitated on day 2
N=C(N)N[C@@H](Cc1ccccc1)C(=O)NCCCCCCCCOc1ccc(OCc2ccccc2)cc1 (as salt: trifluoroacetic acid salt) [Compound 1503]															melting point: 108 to 113 °C
N=C(N)N[C@@H](Cc1ccccc1)C(=O)NCCCCCCCCOc1ccc(OCc2ccccc2)cc1 [Compound 1503]	> 50 µg/mL	> 50 µg/mL	< 0.78 µg/mL	< 0.78 µg/mL	> 50 µg/mL	12.7 µM	<1.56 µg/mL								MIC (C. albicans): > 50 µg/mL; MIC (A. niger; in vitro): > 50 µg/mL; MIC [1, 5]: 8 µg/mL (≈ 15.5 µM); MIC [1, 6]: 16 µg/mL (≈ 31 µM)
C[C@@H]1[C@H](O)[C@@H](C)/C=C/C=C/C=C/C=C/C=C/C=C/C=C/[C@H](O[C@@H]2O[C@H](C)[C@@H](O)[C@H](N)[C@@H]2O)C[C@@H]2O[C@](O)(C[C@@H](O)C[C@@H](O)[C@H](O)CC[C@@H](O)C[C@@H](O)CC(=O)O[C@H]1C)C[C@H](O)[C@H]2C(=O)O [Amphotericin B, reference compound]								<1.56 µg/mL	<1.56 µg/mL						
C[C@H]1c2cccc(O)c2C(=O)C2=C(O)[C@]3(O)C(=O)C(C(N)=O)=C(O)[C@@H](N(C)C)[C@@H]3[C@@H](O)[C@@H]21 [Doxycycline, reference compound]	< 1.56 µg/mL	< 30 µg/mL	< 1.56 µg/mL	< 30 µg/mL											MIC (B. subtilis): < 1.56 µg/mL
C[N+](C)(C)[C@@H](Cc1ccccc1)C(=O)NCCCCCCCCn1ccc2cc(OCc3ccccc3)ccc21.[I-] [Compound 1447]							<1.56; μg/mL and <1.56 μg/mL	< 6.25 µg/mL and < 3.13 µg/mL	>50; >50 μg/mL	>50: <50 μg/mL	>50; >50 μg/mL	<1.56 µg/mL and <0.78 µg/mL	<1.56; μg/mL and <0.78 μg/mL	22.1 µM	Minimal Inhibitory Concentration (MIC), M. flavescens (M. flavescens): <6.25 µg/mL
COc1cccc(COc2ccc(OCCCCCCCCNC(=O)[C@H](Cc3ccccc3)[N+](C)(C)C)cc2)c1.[I-] [Compound 1423]							<1.56 µg/mL	<3.13 µg/mL	<50 µg/mL	>50 µg/mL	>50 µg/mL	<0.20 µg/mL	<1.56 µg/mL	32.9 µM	
C[N+](C)(C)[C@@H](Cc1ccccc1)C(=O)NCCCCCCCCOc1ccc2c(c1)C(=O)CC(c1ccccc1)O2.[I-] (some centres unmarked) [Compound 1450]							<3.13 µg/mL	<6.25 µg/mL	>50 µg/mL	>50 µg/mL	>50 µg/mL	<3.13 µg/mL	<3.13 µg/mL	31.7 µM	Minimal Inhibitory Concentration (MIC), M. flavescens (M. flavescens): <3.13 µg/mL
